Like-named read-outs stand apart in the source and are kept apart here.
Assays:
[1] = Maximum Tolerated Dose, Han Wistar rats; conditions: rat, in vivo, oral
Description: The acute safety of the compounds was assessed in rats in order to enable determination of the maximum tolerated dose (MTD), an indication of a compound's safety in animals. The higher the MTD, the greater is the potential safety of the compound being tested.
At the completion of the study, the results were expressed as the maximum tolerated dose for each compound, this being the highest of each without unacceptable toxicity.
The maximum dose without unacceptable side-effects was determined to be the MTD (expressed in mg/kg).

Monocytes = test: Human primary leucocyte viability: monocytes; assay type: cell-based; conditions: 3 μM, 48 hours
Description: (§1) The effects of the reference compound (ABD735) on the viability of neutrophils, monocytes, CD4+ and CD8+ T-cells and B-lymphocytes was assessed under both resting and stimulated conditions. Resting conditions were used to assess likely effects on normal cells found in human blood, and stimulated conditions were used to assess the effects of the compound under disease conditions.
(§2) Effects on cell viability were assessed using flow cytometry. Flow cytometry is a laser-based, biophysical technology employed in cell counting, cell sorting, and biomarker detection, by suspending cells in a stream of fluid and passing them by an electronic detection apparatus. It allows simultaneous multi-parametric analysis of the physical and chemical characteristics of up to thousands of particles per second. The sorting of cells using flow cytometry requires the use of specific cell markers. To quantify cell numbers, counting beads are used as an internal standard. Counting beads are a calibrated suspension of microbeads which are added to a known volume of sample so the sample volume per bead is known. This allows the absolute determination of cell number in a sample. In addition, for B- and T-lymphocytes, cell proliferation was measured using a dye known as Cell Proliferation Dye (eFluor® 450). eFluor® 450 is an organic dye which can be conjugated to cell-specific markers. It fluoresces when excited by a laser in a manner proportional to the number of cells bound by the conjugate. Its signal therefore provides an indication of the proliferation of specific cell types.
PBMCs (peripheral blood mononuclear cells) were collected from healthy donors (all male) and isolated by centrifugation on a layer of Ficoll Paque (GE Healthcare, UK). Cells were then resuspended (3×10^6 cells/mL) in RPMI supplemented with 10% FCS and antibiotics (penicillin 100 U/mL, streptomycin 100 μg/mL) and 1 mL of cell suspension was added to a 48-well plate, which was then incubated for 1 hour at 37° C./5% CO2. Subsequently, the supernatant was aspirated to remove non-adherent cells, which was followed by two washing steps to ensure removal of non-adhered cells. Adhered cells (monocytes) were then stimulated with either LPS (10 ng/mL), TNFα (10 ng/mL) or macrophage colony stimulating factor (M-CSF) (10 ng/mL) in the absence (control) or presence of reference compound (ABD735) (at 30, 10, 3, 1, or 0.3 μM) for 48 hours at 37° C./5% CO2. Subsequently, the plates were centrifuged and the monocytes washed in PBS before addition of PBS plus EDTA (10 mM) and incubation at 4° C. for 20 minutes to help detach the cells, which was facilitated by pipetting. […]
(§3) The average results (n=3) for the reference compound (ABD735) were expressed as a fold change versus the average control value. […]

B-lymphocytes = test: Human primary leucocyte viability: B-lymphocytes; assay type: cell-based; conditions: 3 μM
Description: as §1
as §2, with “Counting beads are a calibrated suspension of microbeads which are added to a known volume of sample so the sample volume per bead is known. This allows the absolute determination of cell number in a sample.” left out, “It fluoresces when excited by a laser in a manner proportional to the number of cells bound by the conjugate. Its signal therefore provides an indication of the proliferation of specific cell types.” left out
as §3

CD8+ T-lymphocytes [2] = test: Human primary leucocyte proliferation: CD8+ T-lymphocytes; assay type: cell-based; conditions: 3 μM, 5 days
Description: as §2, with “This allows the absolute determination of cell number in a sample.” left out, “It fluoresces when excited by a laser in a manner proportional to the number of cells bound by the conjugate. Its signal therefore provides an indication of the proliferation of specific cell types.” left out
PBMCs (peripheral blood mononuclear cells) were collected from healthy donors (all female) and isolated by centrifugation on a layer of Ficoll Paque (GE Healthcare, UK). […] Following incubation, the cells were stained with either anti-human CD8 or CD4 before being analysed on a flow cytometer. […]
as §3

CD8+ T-lymphocytes [3] = test: Human primary leucocyte viability: CD8+ T-lymphocytes; assay type: cell-based; conditions: 3 μM, 48 hours
Description: as §1
as §2, with “Counting beads are a calibrated suspension of microbeads which are added to a known volume of sample so the sample volume per bead is known. This allows the absolute determination of cell number in a sample.” left out, “It fluoresces when excited by a laser in a manner proportional to the number of cells bound by the conjugate. Its signal therefore provides an indication of the proliferation of specific cell types.” left out
as §3

SMILES	MTD ([1]; female Han Wistar rats, read-out: Maximum tolerated dose, Females)	MTD ([1]; male Han Wistar rats, read-out: Maximum tolerated dose, Males)	Fold change in viability (Monocytes; LPS)	Fold change in viability (Monocytes; M-CSF)	Fold change in viability (Monocytes; TNFα)	Fold change in viability (Monocytes; no stimulation)	Fold change in viability (B-lymphocytes; SAC/IL-2, 48 hours)	Fold change in viability (B-lymphocytes; no stimulation, 48 hours)	Fold change in proliferation (CD8+ T-lymphocytes [2]; no stimulation)	Fold change in proliferation (CD8+ T-lymphocytes [2]; phytohaemagglutinin)	Fold change in viability (CD8+ T-lymphocytes [3]; no stimulation)	Fold change in viability (CD8+ T-lymphocytes [3]; phytohaemagglutinin)
C[C@]1(O)CC[C@H](NS(=O)(=O)c2ccc(-c3ccc(Cl)cc3C#N)cc2)CC1 [HMC-C-01-A, 4′-Chloro-2′-cyano-N-((1r,4r)-4-hydroxy-4-methylcyclohexyl)biphenyl-4-sulfonamide]	> 500 mg/kg	> 500 mg/kg	–	–	–	–	–	–	–	–	–	–
Cc1cc(S(=O)(=O)N[C@H]2CC[C@H](O)CC2)ccc1-c1ccc(F)cc1F [ABD735]	–	–	1.0	1.1	0.5	0.7	1.1	0.9	0.7	0.3	0.8	0.7

Source: US9624167B2, “N-(4-hydroxy-4-methyl-cyclohexyl)-4-phenyl-benzenesulfonamides and N-(4-hydroxy-4-methyl-cyclohexyl)-4-(2-pyridyl)benzenesulfonamides and their therapeutic use” (PIMCO 2664 LIMITED, priority 2013, dated 2017)
